Experimental data from the OPERA property sets (Mansouri et al. 2018).

SMILES	boiling point [°C]	melting point [°C]	further results
C1CCC(C(C2CCCCC2)C2CCCCC2)CC1	326	48	
O=C(O)c1cccc(O)c1O		204	
CC(=O)C1CCC1	138		
O=[N+]([O-])c1cccc2c(Cl)cccc12		111	
CC1=C(CCO)SC2=Nc3nc(C)ncc3CN21		229	
CC(C)C1CCCc2ccccc21 (stereo unspecified)			ready biodegradability: not readily biodegradable
Cc1cc(C)c(O)cc1C	232	72	log10 vapour pressure (mmHg): -2.17
O=C1c2ccccc2C(=O)c2cc(Cl)ccc21		211	ready biodegradability: not readily biodegradable; log10 BCF (fish): 2.28; log10 biotransformation half-life (days) (fish): -0.36
c1cnc(N2CCN(Cc3ccc4c(c3)OCO4)CC2)nc1		98	
CC(C)(Oc1ccccc1)C(=O)O		98.5	
FC(F)(F)C(F)(F)C(F)(F)C(F)(F)C(F)(F)C(F)(F)C(F)(F)Br	118		
O=C1CCC1	99	-50.9	log10 vapour pressure (mmHg): 1.63
CCCCC(C)(C)O	143		log10 vapour pressure (mmHg): 0.317
CC[C@@]12CCCN3CC[C@]4(c5cccc(OC)c5N(C(C)=O)[C@@H]4CC1)[C@H]32		208	
COc1c2ccoc2cc2oc(C)cc(=O)c12		144	
O=C1C[C@H]2CCCC[C@H]2C1	222	-1	
Cc1cc(Cl)ccc1O[C@H](C)C(=O)O			log10 vapour pressure (mmHg): -5.58
Cc1cccc(-c2ccccc2)c1	273	4.5	
CCOCCBr	128		
COc1cc(/C=C/C(=O)CC(=O)/C=C/c2ccc(O)c(OC)c2)ccc1O		183	
CC(C)C(c1ccccc1)C(C)C	221	-24.5	
CN(C)CCC#N	173		
C1O[C@@H]1[C@@H]1CO1	144	3.5	
O=C1/C(=C2\Nc3ccccc3C2=O)Nc2ccccc21			ready biodegradability: not readily biodegradable
Cc1ccc(O)c(C(=O)O)c1		151	
CC(=O)OCCl	116		

SMILES	boiling point [°C]	melting point [°C]	further results
O=[N+]([O-])c1ccc(CO)cc1		96.5	
CCC(C)(C)OC(N)=O		86	
CC(CO)N(C)C (stereo unspecified)	150		
CCCCCCC(C)N (stereo unspecified)	165		
CC#CC=CC	88.5		
C=CCNCC=C	111	-88.4	log10 vapour pressure (mmHg): 1.31
CC(C)c1ncc([N+](=O)[O-])n1C		60	
Nc1ccc2ccccc2c1S(=O)(=O)O		180	ready biodegradability: not readily biodegradable; log10 BCF (fish): 0.78
CC(C)CC(=O)OC(C)C	142		
Sc1c(Cl)c(Cl)c(Cl)c(Cl)c1Cl		232	
C=CC(C)(CCC=C(C)C)OC(C)=O (stereo unspecified)	220		log10 vapour pressure (mmHg): -0.955
CCCCC(CC)C(C)C (stereo unspecified)	163		
CN(C)CC/C=C1\c2ccccc2Sc2ccc(Cl)cc21		97.5	
N#CCc1cccc([N+](=O)[O-])c1		63	
C[C@@H](O)C1CC1	124	-32.1	
Cn1c(=O)cc(O)c2ccccc21		270	
Cc1cc(OC(=O)N(C)C)n(C(C)C)n1			log10 vapour pressure (mmHg): -3
COC(=O)/C=C/C(C)=C\C=C\C(C)=C\C=C\C=C(C)\C=C\C=C(C)\C=C\C(=O)O		198	
CCCCOCCOP(=O)(OCCOCCCC)OCCOCCCC		-70	ready biodegradability: not readily biodegradable; log10 BCF (fish): 0.76
CCOP(=O)(OCC)SCCSCC			log10 Koc (L/kg): 1.85
CC(=O)c1cccc(N)c1	290	98.5	
C=C1C(=O)O[C@@H]2C=C(CO)CCC=C(C)C[C@H](OC(=O)C(=C)[C@@H](O)CO)[C@@H]12		143	
C1=Cc2ccccc2CC1	206	-8	
CCc1ccccc1N	210	-46.5	log10 vapour pressure (mmHg): -0.77
CNC[C@H](O)c1cccc(O)c1.Cl		142	
